MIC data for two compounds are collected here from patent publication US5538962A, “Antibiotic penem compounds” (Zeneca Limited, priority 1992, dated 1996).

Common to all, as to experiment: MIC, in vitro Diagnostic Sensitivity Test, agar-dilution technique
Holding throughout (format): cell-based

One assay concerns Enterobacter cloacae 029. To be noted: inoculum 10^4 CFU/spot, read-out: minimum inhibitory concentration (MIC). The source says: (§1) The following results were obtained for representative compounds on a standard in vitro test system using Diagnostic Sensitivity Test. The antibacterial activity is described in terms of the minimum inhibitory concentration (MIC) determined by the agar-dilution technique with an inocukum size of 10^4 CFU/spot.

For a further assay, the system named is Enterbacter cloacae 108. To be noted: inoculum 10^4 CFU/spot, read-out: minimum inhibitory concentration (MIC).
Source text: as §1

The subject of another assay is S. aureus 147N. To be noted: Staphylococcus aureus, inoculum 10^4 CFU/spot, read-out: minimum inhibitory concentration (MIC).
Source text: as §1

A further assay concerns E. coli TEM. To be noted: Escherichia coli, read-out: minimum inhibitory concentration (MIC).
Source text: as §1

Converted amounts (≈) assume the structure as drawn.

As to `CC(O)C1C(=O)N2C(C(=O)O)=C(SC3CNC(C(=O)Nc4csc(C(=O)O)c4)C3)SC12` [Example 1, (5R,6S,8R,2'S,4'S)-2-(2-(2-carboxy-4-thienylcarbamoyl)pyrrolidin-4-ylthio)-6-(1-hydroxyethyl)pen-2-em-3-carboxlic acid], the MIC was found to be 0.015 µg/mL (≈ 0.0309 µM) in the assay on Enterobacter cloacae 029, 0.5 µg/mL (≈ 1.03 µM) with Enterbacter cloacae 108, 0.125 µg/mL (≈ 0.257 µM) in the assay with S. aureus 147N and 0.008 µg/mL (≈ 0.0165 µM) in the assay on E. coli TEM.
Taken in the same sequence, the figures for `CO/N=C(\C(=O)N[C@@H]1C(=O)N2C(C(=O)O)=C(CSc3nc(=O)c(=O)[nH]n3C)CS[C@H]12)c1csc(N)n1` [ceftriaxone] were 0.06 µg/mL (≈ 0.108 µM), 32 µg/mL (≈ 57.7 µM), 2 µg/mL (≈ 3.61 µM) and 0.03 µg/mL (≈ 0.0541 µM).
